Reference: ChEMBL document CHEMBL1201862, “PubChem BioAssay data set” (2004)
Several values for one entry are separate records, joined by “and”; a condition that tells them apart may be missing. Equal entries are not always repeated.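 Dose response: 5 concentrations. Exposure: 48 h. Format: 96-well plates. Endpoint: linear interpolation; highest concentration if not reached. The concentration for 50% growth inhibition is given as GI50.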 Activity calls are given as the source filed them. Rule as the data show it: active = GI50 up to about 1.1 µM and inactive = higher.

Columns and labels:
Assay in all cases: growth of human tumour cells (NCI), 48 h
MOLT-4 = test system: MOLT-4
SF-268 = test system: SF-268
K562 = test system: K562
MDA-MB-231 = test system: MDA-MB-231
UACC-62 = test system: UACC-62
SNB-75 = test system: SNB-75
MDA-MB-435 = test system: MDA-MB-435
NCI-H226 = test system: NCI-H226
PC-3 = test system: PC-3
SN12C = test system: SN12C
HCC 2998 = test system: HCC 2998
NCI-H23 = test system: NCI-H23
U-251 = test system: U-251
HL-60 = test system: HL-60
A549 = test system: A549
COLO 205 = test system: COLO 205
SNB-19 = test system: SNB-19
MDA-N = test system: MDA-N
SK-MEL-5 = test system: SK-MEL-5

Compound | GI50 (MOLT-4) | GI50 (SF-268) | GI50 (K562) | GI50 (MDA-MB-231) | GI50 (UACC-62) | GI50 (SNB-75) | GI50 (MDA-MB-435) | GI50 (NCI-H226) | GI50 (PC-3) | GI50 (SN12C) | GI50 (HCC 2998) | GI50 (NCI-H23) | GI50 (U-251) | GI50 (HL-60) | GI50 (A549) | GI50 (COLO 205) | GI50 (SNB-19) | GI50 (MDA-N) | GI50 (SK-MEL-5)
C=C(Cl)C(Cl)(CBr)CCC(Br)C(C)(C)Cl (stereo not given) | 20.6 µM (inactive) and 10.1 µM (inactive) and 13.5 µM (inactive) | 3.03 µM (inactive) and 735 nM (active) and 1.35 µM (inactive) | 1.33 µM (inactive) and 14.4 µM (inactive) and 863 nM (active) | 8.36 µM (inactive) and 1.22 µM (inactive) and 1.95 µM (inactive) | 3.72 µM (inactive) and 1.07 µM (active) and 3.47 µM (inactive) | 1.64 µM (inactive) and 834 nM (active) and 416 nM (active) | 2.18 µM (inactive) and 11.1 µM (inactive) and 1.77 µM (inactive) | 18.2 µM (inactive) and 17.5 µM (inactive) and 16 µM (inactive) | 1.6 µM (inactive) and 904 nM (active) and 1 µM (active) | 14.7 µM (inactive) and 4.2 µM (inactive) and 6.62 µM (inactive) | 3.15 µM (inactive) and 2.61 µM (inactive) and 1.59 µM (inactive) | 22.4 µM (inactive) and 16.3 µM (inactive) and 12 µM (inactive) | 277 nM (active) and 1.41 µM (inactive) and 615 nM (active) | 635 nM (active) and 733 nM (active) and 2.42 µM (inactive) | 4.36 µM (inactive) and 2.48 µM (inactive) and 3.09 µM (inactive) | 1.72 µM (inactive) and 2.95 µM (inactive) and 14.5 µM (inactive) | 2.41 µM (inactive) and 863 nM (active) and 3.49 µM (inactive) | 2.28 µM (inactive) and 964 nM (active) and 8.77 µM (inactive) | 14.9 µM (inactive) and 12.7 µM (inactive) and 12.4 µM (inactive)
CCOc1cc(CCNC)c2c(ccc3ccc(OC)c(O)c32)c1OC | 5.82 µM (inactive) | 18 µM (inactive) | 17 µM (inactive) | 13.4 µM (inactive) | 15.8 µM (inactive) | 16 µM (inactive) | 12.6 µM (inactive) | 17.9 µM (inactive) | 13.2 µM (inactive) | 16.1 µM (inactive) | 15.5 µM (inactive) | 11.7 µM (inactive) | 18.3 µM (inactive) | 15 µM (inactive) | 19.3 µM (inactive) | 19 µM (inactive) | 16.1 µM (inactive) | 2.49 µM (inactive) | 11.8 µM (inactive)
Cc1c2c(c(C)n1-c1ccccc1)C(=O)N(CCSC(=N)N)C2=O | 14.2 µM (inactive) | > 100 µM (inactive) | > 100 µM (inactive) | > 100 µM (inactive) | > 100 µM (inactive) | 15.6 µM (inactive) | 93.3 µM (inactive) | > 100 µM (inactive) | > 100 µM (inactive) | > 100 µM (inactive) | > 100 µM (inactive) | 4.85 µM (inactive) | 68.9 µM (inactive) | > 100 µM (inactive) | > 100 µM (inactive) | > 100 µM (inactive) | > 100 µM (inactive) | > 100 µM (inactive) | 1.96 µM (inactive)
O=C(CCCl)NN=C1NCCN1 | > 100 µM (inactive) | > 100 µM (inactive) | > 100 µM (inactive) | > 100 µM (inactive) | > 100 µM (inactive) | > 100 µM (inactive) | > 100 µM (inactive) | > 100 µM (inactive) | > 100 µM (inactive) | > 100 µM (inactive) | > 100 µM (inactive) | > 100 µM (inactive) | > 100 µM (inactive) | > 100 µM (inactive) | > 100 µM (inactive) | > 100 µM (inactive) | > 100 µM (inactive) | > 100 µM (inactive) | > 100 µM (inactive)
CC(=O)NNc1nc(C)c(C(/C=C/c2ccc([N+](=O)[O-])cc2)=N/N)s1 | > 100 µM (inactive) | > 100 µM (inactive) | 55.5 µM (inactive) | 25.4 µM (inactive) | > 100 µM (inactive) | 87.9 µM (inactive) | > 100 µM (inactive) | > 100 µM (inactive) | > 100 µM (inactive) | 84.5 µM (inactive) | 66.1 µM (inactive) | > 100 µM (inactive) | > 100 µM (inactive) | 21 µM (inactive) | > 100 µM (inactive) | > 100 µM (inactive) | > 100 µM (inactive) | > 100 µM (inactive) | > 100 µM (inactive)
